Test system: human cervical cancer cell line HeLa
Test: Cell growth inhibition test against human cervical cancer cells
Type: cell-based
Conditions: compound concentration 20 μmol/L, 72 hours culture, read-out: inhibited the cell growth
Protocol: As a cervical cancer cell line, a human cervical cancer cell line HeLa (DS Pharma Biomedical, Cat. No. EC93021013-F0) was used.
The cell line was cultured under conditions of 37° C. and 5% carbon dioxide.
The difference in absorbance in the well in which the cells were not treated with the compound was taken as 100%, and the difference in absorbance in the well in which the cells were not inoculated was taken as 0%, and the cell growth ratio (%) was calculated based on the difference in absorbance in the compound-treated group.

Q: How did the inhibition at 20 µM turn out when `CCC(C)CC(C)CC(C)CC(C)/C=C(C)/C=C(/CC(C)C(=O)OC1C(=O)OC(C(=O)O)C1C(=O)O)C(=O)O` (stereo not shown) [Compound 1, 4-{(4Z,6E)-4-Carboxy-2,6,8,10,12,14-hexamethylhexadec-4,6-dienoyloxy}-5-oxotetrahydrofuran-2,3-dicarboxylic Acid] was run?
A: ≥ 90%

Q: With `CCC(C)CC(C)CC(C)CC(C)/C=C(C)/C=C(/CC(C)C(=O)OC1C(=O)OC(C(=O)OCOC(C)=O)C1C(=O)OCOC(C)=O)C(=O)OCOC(C)=O` (stereo not shown) [Compound 27, Di(acetoxymethyl) 4-{(4Z,6E)-4-(acetoxymethoxycarbonyl)-2,6,8,10,12,14-hexamethylhexadec-4,6-dienoyloxy}-5-oxotetrahydrofuran-2,3-dicarboxylate] as the molecule, how does the inhibition at 20 µM read?
A: ≥ 90%

Same assay, conditions: compound concentration 200 μmol/L, 72 hours culture, read-out: inhibited the cell growth

Q: How did the inhibition at 200 µM turn out when `CCC(C)CC(C)CC(C)CC(C)/C=C(C)/C=C(/CC(C)C(=O)CCCO)C(=O)O` (stereo not shown) [Compound 13, (2Z,4E)-2-{3-(3-Hydroxypropyl)-2-methyl-3-oxopropyl}-4,6,8,10,12-pentamethyltetradec-2,4-dienoic Acid] was run?
A: ≥ 90%

Q: For `CCC(C)CC(C)CC(C)CC(C)/C=C(C)/C=C(/CC(C)C(=O)OC(C(=O)O)C(C(=O)OCOC(C)=O)C(O)C(=O)OCOC(C)=O)C(=O)O` (stereo not shown) [Compound 30, (2Z,4E)-2-[3-{4-(Acetoxymethoxy)-2-{(acetoxymethoxy)carbonyl}-1-carboxy-3-hydroxy-4-oxobutoxy}-2-methyl-3-oxopropyl]-4,6,8,10,12-pentamethyltetradec-2,4-dienoic Acid], which inhibition at 200 µM is on record?
A: ≥ 90%

Q: `CCC(C)CC(C)CC(C)CC(C)/C=C(C)/C=C(/CC(C)C(=O)OC1C(=O)OC(C(=O)OC)C1C(=O)OC)C(=O)OC` (stereo not shown) [Compound 5, Dimethyl 4-{(4Z,6E)-4-(methoxycarbonyl)-2,6,8,10,12,14-hexamethylhexadec-4,6-dienoyloxy}-5-oxotetrahydrofuran-2,3-dicarboxylate] was tested. Which inhibition at 200 µM did it give?
A: ≥ 90%

Q: `CCOP(=O)(OCC)O[C@H](C(=O)O)[C@H](OC(=O)C(C)C/C(=C/C(C)=C/C(C)CC(C)CC(C)CC(C)CC)C(=O)O)C(=O)O` (stereo partly drawn) [Compound 17, (2S,3S)-2-{(4Z,6E)-4-Carboxy-2,6,8,10,12,14-hexamethylhexadec-4,6-dienoyloxy}-3-(diethoxyphosphoryloxy)succinic Acid] was tested. Which inhibition at 200 µM did it give?
A: ≥ 90%

Q: How did the inhibition at 200 µM turn out when `CCC(C)CC(C)CC(C)CC(C)/C=C(C)/C=C(/CC(C)C(=O)OC(C(=O)O)C(C(=O)O)C(=O)O)C(=O)O` (stereo not shown) [Compound 23, 2-{(4Z,6E)-4-Carboxy-2,6,8,10,12,14-hexamethylhexadec-4,6-dienoyloxy}ethane-1,1,2-tricarboxylic Acid] was run?
A: ≥ 90%

Q: Which inhibition at 200 µM does the source give for `CCC(C)CC(C)CC(C)CC(C)/C=C(C)/C=C(/CC(C)C(=O)OCCC(=O)O)C(=O)O` (stereo not shown) [Compound 11, (2Z,4E)-2-{3-(2-Carboxyethoxy)-2-methyl-3-oxopropyl}-4,6,8,10,12-pentamethyltetradec-2,4-dienoic Acid] here?
A: ≥ 90%

Q: Which inhibition at 200 µM does the source give for `CCC(C)CC(C)CC(C)CC(C)/C=C(C)/C=C(/CC(C)C(=O)[C@@H](CC)C(=O)O)C(=O)O` (stereo partly drawn) [Compound 18, (2Z,4E)-2-[3-{(R)-1-Carboxypropyl}-2-methyl-3-oxopropyl]-4,6,8,10,12-pentamethyltetradec-2,4-dienoic Acid] here?
A: ≥ 90%

Q: How did the inhibition at 200 µM turn out when `CCC(C)CC(C)CC(C)CC(C)/C=C(C)/C=C(/CC(C)C(=O)OC(C(=O)O)C(=O)O)C(=O)O` (stereo not shown) [Compound 22, 2-{(4Z,6E)-4-Carboxy-2,6,8,10,12,14-hexamethylhexadec-4,6-dienoyloxy}malonic Acid] was run?
A: ≥ 90%

Q: With `CCC(C)CC(C)CC(C)CC(C)/C=C(C)/C=C(/CC(C)C(=O)OCC(CC(=O)O)C(=O)O)C(=O)O` (stereo not shown) [Compound 24, 2-[{(4Z,6E)-4-Carboxy-2,6,8,10,12,14-hexamethylhexadec-4,6-dienoyloxy}methyl]succinic Acid] as the molecule, how does the inhibition at 200 µM read?
A: ≥ 90%

Q: With `CCC(C)CC(C)CC(C)CC(C)/C=C(C)/C=C(/CC(C)C(=O)OCC[C@H](O)C(=O)O)C(=O)O` (stereo partly drawn) [Compound 16, (2Z,4E)-2-[3-{(S)-3-Carboxy-3-hydroxypropoxy}-2-methyl-3-oxopropyl]-4,6,8,10,12-pentamethyltetradec-2,4-dienoic Acid] as the molecule, how does the inhibition at 200 µM read?
A: ≥ 90%

Q: With `CCC(C)CC(C)CC(C)CC(C)/C=C(C)/C=C(/CC(C)C(=O)OC)C(=O)O` (stereo not shown) [Compound 10, (2Z,4E)-2-(3-Methoxy-2-methyl-3-oxopropyl)-4,6,8,10,12-pentamethyltetradec-2,4-dienoic Acid] as the molecule, how does the inhibition at 200 µM read?
A: ≥ 90%

Q: How did the inhibition at 200 µM turn out when `CCC(C)CC(C)CC(C)CC(C)/C=C(C)/C=C(/CC(C)C(=O)OCC(=O)O)C(=O)O` (stereo not shown) [Compound 9, (2Z,4E)-2-{3-(Carboxymethoxy)-2-methyl-3-oxopropyl}-4,6,8,10,12-pentamethyltetradec-2,4-dienoic Acid] was run?
A: ≥ 90%

Q: Which inhibition at 200 µM does the source give for `CCC(C)CC(C)CC(C)CC(C)/C=C(C)/C=C(/CC(C)C(=O)O[C@@H]1CCOC1=O)C(=O)O` (stereo partly drawn) [Compound 20, (2Z,4E)-4,6,8,10,12-Pentamethyl-2-[2-methyl-3-oxo-3-{(R)-2-oxotetrahydrofuran-3-yloxy}propyl]tetradec-2,4-dienoic Acid] here?
A: ≥ 90%

Q: Which inhibition at 200 µM does the source give for `CCC(C)CC(C)CC(C)CC(C)/C=C(C)/C=C(/CC(C)C(=O)O[C@H]1CCOC1=O)C(=O)O` (stereo partly drawn) [Compound 15, (2Z,4E)-4,6,8,10,12-Pentamethyl-2-[2-methyl-3-oxo-3-{(S)-2-oxotetrahydrofuran-3-yloxy}propyl]tetradec-2,4-dienoic Acid] here?
A: ≥ 90%

Q: With `CCC(C)CC(C)CC(C)CC(C)/C=C(C)/C=C(/CC(C)C(=O)OCOC(C)=O)C(=O)OCOC(C)=O` (stereo not shown) [Compound 29, Bis(acetoxymethyl) (Z)-2-methyl-4-{(E)-2,4,6,8,10-pentamethyldodec-2-enylidene}pentanedioate] as the molecule, how does the inhibition at 200 µM read?
A: ≥ 90%

Q: Which inhibition at 200 µM does the source give for `CCC(C)CC(C)CC(C)CC(C)/C=C(C)/C=C(/CC(C)C(=O)OCOC(C)=O)C(=O)O` (stereo not shown) [Compound 28, (2Z,4E)-2-{3-(Acetoxymethoxy)-2-methyl-3-oxopropyl}-4,6,8,10,12-pentamethyltetradec-2,4-dienoic Acid] here?
A: ≥ 90%

Q: `CCC(C)CC(C)CC(C)CC(C)/C=C(C)/C=C(/CC(C)C(=O)OC(C(=O)OC)C(C(=O)OC)C(O)C(=O)OC)C(=O)OC` (stereo not shown) [Compound 7, Trimethyl 1-hydroxy-3-{(4Z,6E)-4(methoxycarbonyl)-2,6,8,10,12,14-hexamethylhexadec-4,6-dienoyloxy}-propane-1,2,3-tricarboxylate] was tested. Which inhibition at 200 µM did it give?
A: ≥ 90%

Q: Which inhibition at 200 µM does the source give for `CCC(C)CC(C)CC(C)CC(C)/C=C(C)/C=C(/CC(C)C(=O)O)C(=O)OC(C)(C)C` (stereo not shown) [Compound 8, (4Z,6E)-4-(tert-Butoxycarbonyl)-2,6,8,10,12,14-hexamethylhexadec-4,6-dienoic Acid] here?
A: ≥ 90%

Q: With `CCC(C)CC(C)CC(C)CC(C)/C=C(C)/C=C(/CC(C)C(=O)OC(C(=O)O)C(C(=O)OC)C(O)C(=O)OC)C(=O)OC` (stereo not shown) [Compound 6, 4-Hydroxy-5-methoxy-3-(methoxycarbonyl)-2-{(4Z,6E)-4-(methoxycarbonyl)-2,6,8,10,12,14-hexamethylhexadec-4,6-dienoyloxy}-5-oxopentanoic Acid] as the molecule, how does the inhibition at 200 µM read?
A: ≥ 90%

Q: Which inhibition at 200 µM does the source give for `CCC(C)CC(C)CC(C)CC(C)/C=C(C)/C=C(/CC(C)C(=O)[C@@H]1COC(=O)C1)C(=O)O` (stereo partly drawn) [Compound 21, (2Z,4E)-4,6,8,10,12-Pentamethyl-2-[2-methyl-3-oxo-3-{(S)-5-oxotetrahydrofuran-3-yl}propyl]tetradec-2,4-dienoic Acid] here?
A: ≥ 90%

Q: With `CCC(C)CC(C)CC(C)CC(C)/C=C(C)/C=C(/CC(C)C(=O)CCCC(=O)O)C(=O)O` (stereo not shown) [Compound 12, (2Z,4E)-2-{3-(3-Carboxypropyl)-2-methyl-3-oxopropyl}-4,6,8,10,12-pentamethyltetradec-2,4-dienoic Acid] as the molecule, how does the inhibition at 200 µM read?
A: ≥ 90%

Q: How did the inhibition at 200 µM turn out when `CCC(C)CC(C)CC(C)CC(C)/C=C(C)/C=C(/CC(C)C(=O)O[C@@H](CC(=O)O)C(=O)O)C(=O)O` (stereo partly drawn) [Compound 14, (2S)-2-{(4Z,6E)-4-Carboxy-2,6,8,10,12,14-hexamethylhexadec-4,6-dienoyloxy}succinic Acid] was run?
A: ≥ 90%

Q: How did the inhibition at 200 µM turn out when `CCC(C)CC(C)CC(C)CC(C)/C=C(C)/C=C(/CC(C)C(=O)C[C@@H](O)CO)C(=O)O` (stereo partly drawn) [Compound 19, (2Z,4E)-2-[3-{(R)-2,3-Dihydroxypropyl}-2-methyl-3-oxopropyl]-4,6,8,10,12-pentamethyltetradec-2,4-dienoic Acid] was run?
A: ≥ 90%

Source: patent US9260459B2, “4,6-hexadecadiene-2,4-dicarboxylic acid derivative” (Kyowa Hakko Kirin Co., Ltd., priority 2012, dated 2016)
